Source: US10228380B2, “Methods for targeting membrane steroid transporters” (priority 2018, dated 2019)

How the values were obtained:
[1] = molecular target: T1, EcR (Drosophila melanogaster, UniProt P34021); assay: luciferase reporter assay in S2 culture cells with or without EcI RNAi; type: cell-based, D. melanogaster; details: for effect of EcI RNAi treatment on the cells' response as measured by the luciferase assay: S2 culture cells, varying concentrations, 24 hours, EcI RNAi vs control cells without RNAi
T1 construct: endogenous in cells; host or cells: Drosophila S2 culture cells
T1 sequence (P34021 1-878): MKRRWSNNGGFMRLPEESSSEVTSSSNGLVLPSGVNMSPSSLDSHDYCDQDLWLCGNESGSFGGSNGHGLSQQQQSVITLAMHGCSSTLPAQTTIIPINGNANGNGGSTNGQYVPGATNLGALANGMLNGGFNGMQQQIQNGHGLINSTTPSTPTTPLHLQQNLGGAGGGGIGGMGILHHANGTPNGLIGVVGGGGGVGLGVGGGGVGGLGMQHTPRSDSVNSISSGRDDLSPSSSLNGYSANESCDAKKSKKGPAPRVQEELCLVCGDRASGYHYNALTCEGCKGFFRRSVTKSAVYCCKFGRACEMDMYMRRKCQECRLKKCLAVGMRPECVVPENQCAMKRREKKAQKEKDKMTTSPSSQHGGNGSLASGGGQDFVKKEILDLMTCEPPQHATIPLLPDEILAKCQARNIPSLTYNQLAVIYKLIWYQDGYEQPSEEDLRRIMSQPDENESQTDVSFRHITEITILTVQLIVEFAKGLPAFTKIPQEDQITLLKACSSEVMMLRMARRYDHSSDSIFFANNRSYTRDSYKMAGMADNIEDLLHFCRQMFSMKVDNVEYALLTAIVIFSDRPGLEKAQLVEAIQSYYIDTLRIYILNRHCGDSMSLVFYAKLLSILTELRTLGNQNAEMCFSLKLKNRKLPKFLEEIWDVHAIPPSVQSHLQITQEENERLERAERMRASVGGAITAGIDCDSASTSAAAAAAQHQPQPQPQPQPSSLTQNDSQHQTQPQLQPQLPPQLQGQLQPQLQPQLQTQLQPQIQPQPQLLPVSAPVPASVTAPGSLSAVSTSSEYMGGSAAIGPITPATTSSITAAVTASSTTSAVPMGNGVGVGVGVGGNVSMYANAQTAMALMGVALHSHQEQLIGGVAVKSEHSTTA
T1 sequence (P20153 1-508 partner): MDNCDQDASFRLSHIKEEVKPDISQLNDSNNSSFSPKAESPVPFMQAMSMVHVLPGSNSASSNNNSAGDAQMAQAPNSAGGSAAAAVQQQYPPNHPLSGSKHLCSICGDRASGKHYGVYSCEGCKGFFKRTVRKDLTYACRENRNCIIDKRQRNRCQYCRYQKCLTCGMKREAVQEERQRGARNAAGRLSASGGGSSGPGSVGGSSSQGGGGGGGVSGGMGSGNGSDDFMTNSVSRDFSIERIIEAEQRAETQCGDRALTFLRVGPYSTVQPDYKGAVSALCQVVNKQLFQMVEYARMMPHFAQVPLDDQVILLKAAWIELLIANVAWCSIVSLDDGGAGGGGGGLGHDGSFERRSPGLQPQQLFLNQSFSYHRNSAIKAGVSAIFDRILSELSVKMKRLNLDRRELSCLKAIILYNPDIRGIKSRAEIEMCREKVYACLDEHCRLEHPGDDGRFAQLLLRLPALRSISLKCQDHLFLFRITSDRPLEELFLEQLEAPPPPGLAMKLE
Description: FIG. 3 is a graph of the fold change of D. melanogaster EcR response after incubation of S2 culture cells for 24 hours in varying concentrations of 20E (left graph) or chromafenozide (CF; middle graph), as measured by luciferase reporter assay. The right graph is a time-course analysis of EcR-mediated luciferase activity in S2 culture cells treated with 10^−7M of 20E. In each graph, the control data is the solid top line, and the dashed bottom line is data of cells treated with EcI RNAi. Each point represents mean±SD; * indicates p<0.05 from Student's t-test compared to control; ** indicates p<0.01 from Student's t-test compared to control.
FIG. 5A depicts a schematic of a luciferase reporter assay in a cell derived from an arthropod cell line, for determining transport of 20E by the membrane steroid hormone transporter encoded by ecdysone importer (EcI).
As described above, in some embodiments, the transcriptional activity of a steroid hormone nuclear receptor is used to evaluate the transport of a steroid hormone across the cell membrane of an initial cell, or a comparative cell. In some variations, the luciferase reporter assay is used to measure the transcriptional activity of the steroid hormone nuclear receptor. For example, with reference to FIG. 5A and FIG. 5B, depicted are schemes showing the use of a luciferase reporter assay in an S2 cell (FIG. 5A) or in a HEK cell (FIG. 5B) to evaluate the transcriptional activity of the nuclear receptor encoded by the gene ecdysone receptor (EcR).
S2 culture cells treated with EcI RNAi were incubated with varying concentrations of 20E or with chromafenozide (CF) for 24 hours, and their response was monitored using a luciferase reporter assay. The relative response of the treated cells was compared to control cells, which were incubated with 20E or CF but not treated with RNAi. […] CF is a non-steroidal EcR agonist, and is expected to enter the cells through an unknown transporter distinct from EcI.

[2] = molecular target: T2, EcI and EcR (Drosophila melanogaster, UniProt P34021); assay: luciferase reporter assay in HEK culture cells transfected with EcR or with EcI and EcR; type: cell-based, D. melanogaster; details: varying concentrations, 24 hours
T2 construct: expressed in transfected cells; host or cells: human HEK cells
T2 sequence (P34021 1-878): T1 sequence (P34021 1-878)
Description: FIG. 4 is a relative luciferase reporter activity in HEK culture cells treated for 24 h with 20E. Response of the cells transfected with EcR is the solid bottom line; cells transfected with EcR and EcI is the dashed top line. Each point represents mean±SEM; ** indicates p<0.01 from Student's t-test compared to control.
FIG. 5B depicts a schematic of a luciferase reporter assay in a cell derived from a mammalian cell line, for determining transport of 20E by the membrane steroid hormone transporter encoded by ecdysone importer (EcI).
As described above, in some embodiments, the transcriptional activity of a steroid hormone nuclear receptor is used to evaluate the transport of a steroid hormone across the cell membrane of an initial cell, or a comparative cell. In some variations, the luciferase reporter assay is used to measure the transcriptional activity of the steroid hormone nuclear receptor. […]
Human HEK cells were transfected with EcI and EcR, and their response to incubation with varying concentrations of 20E for 24 hours was evaluated using the luciferase reporter assay. Control HEK cells that were transfected only with EcR were also evaluated.

Structure (SMILES) | effect of EcI RNAi treatment on the cells' response as measured by the luciferase assay [1] | effect of EcI RNAi treatment on the cells' response over time (time-course of luciferase activity) ([1]; S2 cells treated with 10^−7 M, with or without RNAi) | response as measured by luciferase assay ([2]; control human HEK cells transfected only with EcR) | response as measured by luciferase assay ([2]; human HEK cells transfected with both EcI and EcR)
Cc1cc(C)cc(C(=O)N(NC(=O)c2ccc3c(c2C)CCCO3)C(C)(C)C)c1 [CF, chromafenozide] | less effect |  |  | 
CC(C)(O)CC[C@@H](O)[C@](C)(O)[C@H]1CC[C@@]2(O)C3=CC(=O)[C@@H]4C[C@@H](O)[C@@H](O)C[C@]4(C)[C@H]3CC[C@]12C [20E, 20-hydroxyecdysone] | significantly decreased | significantly decreased | not responsive | responsive
